14 molecules from PubChem BioAssay (NCI) can be followed below.

Among the test systems are IGROV1 ovarian; UO-31 renal; SK-MEL-28 melanoma; NCI-H460 lung; 786-0 renal; MOLT-4 leukemia; MALME-3M melanoma; SF-295 CNS; ACHN renal; SR leukemia.
Common to all, as to assay: NCI tumour cell line growth inhibition, 48 h

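Values below derive from 48-hour exposures of cells grown in 96-well plates, with endpoints linearly interpolated between the two concentrations bracketing the appropriate inhibition level. TGI: concentration producing complete growth inhibition.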

In the case of `CSc1ccc2c(cc1=O)[C@@H](NC(=O)c1ccc(F)cc1)CCc1cc(O)c(O)c(O)c1-2`, the TGI in the test with IGROV1 ovarian, with UO-31 renal, in the test with SK-MEL-28 melanoma, in the test with NCI-H460 lung, in the test on 786-0 renal and with MOLT-4 leukemia was greater than 100 µM each time. The TGI with MALME-3M melanoma, with SF-295 CNS and with ACHN renal was greater than 100 µM in each case.

Turning to `CCSc1nc2n(c(=S)n1)CCN2C`, the TGI in the test on IGROV1 ovarian was 45.9 µM; in the test on UO-31 renal, 58.9 µM; in the test on SK-MEL-28 melanoma, 41.3 µM; in the test on NCI-H460 lung, 39.7 µM; with 786-0 renal, 52 µM; with MOLT-4 leukemia, 39.1 µM. The TGI with MALME-3M melanoma stood at 36.2 µM; in the test with SF-295 CNS, 41.2 µM; in the test with ACHN renal, 60.6 µM; with SR leukemia, 29.9 µM.

`C/C(=N/N)c1ccc2[nH]c3c(C)cc([N+](=O)[O-])c(C)c3c2c1`: the TGI in the test with UO-31 renal was 22.4 µM; with SK-MEL-28 melanoma, 24.5 µM; in the test with NCI-H460 lung, 72.4 µM; in the test with 786-0 renal it was 22.2 µM; with MOLT-4 leukemia it was 19.8 µM; with MALME-3M melanoma, 16.4 µM. The TGI was 35.5 µM in the test with SF-295 CNS and 21.6 µM in the test on ACHN renal.

With `CCC/C(=N\NC(=O)c1cc2ccccc2cc1O)C(CC)C(=O)CCC(=O)N(Cc1ccccc1)Cc1ccccc1` (stereo not drawn), the TGI in the test on IGROV1 ovarian, in the test on UO-31 renal, in the test on SK-MEL-28 melanoma, in the test with NCI-H460 lung, in the test with 786-0 renal and in the test on MOLT-4 leukemia was greater than 100 µM throughout. The TGI in the test on MALME-3M melanoma, in the test with SF-295 CNS, in the test on ACHN renal and in the test with SR leukemia was greater than 100 µM in each case.

As to `N#CC(c1cc(Cl)ncn1)c1nc2ccccc2s1` (stereo not drawn), the TGI was 22 µM in the test with IGROV1 ovarian; greater than 100 µM with UO-31 renal; 42.9 µM in the test on SK-MEL-28 melanoma; greater than 100 µM with NCI-H460 lung; 29.5 µM in the test with 786-0 renal; greater than 100 µM with MOLT-4 leukemia. The figures for the TGI with MALME-3M melanoma, in the test on SF-295 CNS and in the test with ACHN renal were 24.6 µM, 43.7 µM and 68.7 µM, respectively.

With `CC(=O)Nc1ccc(-c2nc3ccccc3s2)cc1O`, the TGI was 57.7 µM with IGROV1 ovarian; greater than 100 µM in the test on UO-31 renal; greater than 100 µM with SK-MEL-28 melanoma; greater than 100 µM with NCI-H460 lung; greater than 100 µM in the test with 786-0 renal; 85.6 µM with MOLT-4 leukemia. Moreover, the TGI in the test on SF-295 CNS, in the test with ACHN renal and with SR leukemia was greater than 100 µM each time.

As to `Nc1ccc(N)c2c1C(=O)c1c(N)ccc(N)c1C2=O`, the TGI in the test on IGROV1 ovarian was greater than 100 µM; in the test on UO-31 renal, greater than 100 µM; in the test on SK-MEL-28 melanoma, greater than 100 µM; in the test with NCI-H460 lung it was greater than 100 µM; with 786-0 renal, greater than 100 µM; with MOLT-4 leukemia it was greater than 63.6 µM. Moreover, the TGI in the test with MALME-3M melanoma, in the test on SF-295 CNS and with ACHN renal was greater than 100 µM throughout.

For `O=C(CSc1nnc(-c2ccc(N=Cc3ccc(Cl)cc3)cc2)o1)Nc1cccc(Cl)c1`, the TGI with UO-31 renal, in the test on SK-MEL-28 melanoma, in the test on NCI-H460 lung, in the test on 786-0 renal, in the test on MOLT-4 leukemia and in the test on MALME-3M melanoma was greater than 100 µM in each case. Besides, the TGI with SF-295 CNS, with ACHN renal and with SR leukemia was greater than 100 µM in each case.

With `CCOC(=O)c1cc(-c2ccc(Cl)cc2)c([N+](=O)[O-])n1C`, the TGI in the test with IGROV1 ovarian, in the test with UO-31 renal, with NCI-H460 lung, with 786-0 renal, in the test with MOLT-4 leukemia and in the test with MALME-3M melanoma was greater than 10 µM each time. The TGI with SF-295 CNS, with ACHN renal and in the test with SR leukemia was greater than 10 µM each time.

`COc1cc(C=O)c(-c2cc3c(cc2C=O)OCO3)c(OC)c1OC`: the TGI in the test on IGROV1 ovarian, with SK-MEL-28 melanoma, in the test with NCI-H460 lung, with 786-0 renal, with MOLT-4 leukemia and with MALME-3M melanoma was greater than 290 µM throughout. The TGI was 219 µM with SF-295 CNS, greater than 290 µM in the test with ACHN renal and greater than 290 µM in the test on SR leukemia.

With `Cc1cc2c(c(N)c1C)C(=O)c1ccccc1C2=O`, the TGI with IGROV1 ovarian was greater than 100 µM; in the test with UO-31 renal, 33.1 µM; with NCI-H460 lung, greater than 100 µM; in the test on 786-0 renal it was 62.7 µM; in the test with MOLT-4 leukemia, greater than 100 µM; in the test on MALME-3M melanoma it was greater than 100 µM. For the same molecule, the TGI with SF-295 CNS is 86.6 µM; in the test with ACHN renal, greater than 100 µM; in the test with SR leukemia, greater than 100 µM.

Consider `O=c1[nH]c(=O)n(C2CC(O)C(CO)O2)cc1C#Cc1cc(F)cc(F)c1` (stereo not drawn), for which the TGI with IGROV1 ovarian, in the test on UO-31 renal, in the test with SK-MEL-28 melanoma, in the test with NCI-H460 lung, in the test on 786-0 renal and in the test on MOLT-4 leukemia was greater than 100 µM each time. The TGI in the test on MALME-3M melanoma, in the test with SF-295 CNS and in the test on ACHN renal was greater than 100 µM throughout.

As to `CN(C)/C=N/c1nc2ncn(CCOC(=O)c3ccccc3)c2c(=O)[nH]1`, the TGI with IGROV1 ovarian, with UO-31 renal, with SK-MEL-28 melanoma, in the test with NCI-H460 lung, in the test with 786-0 renal and in the test with MALME-3M melanoma was greater than 100 µM in each case. The TGI with SF-295 CNS, with ACHN renal and in the test with SR leukemia was greater than 100 µM throughout.

In the case of `COc1ccc(C#CCC(OC2OC(CO)C(O)C(O)C2O)C(O)c2ccc(OC)c(OC)c2)cc1OC` (stereo not drawn), the TGI with IGROV1 ovarian, in the test with UO-31 renal, with SK-MEL-28 melanoma, with NCI-H460 lung, in the test with 786-0 renal and in the test with MOLT-4 leukemia was greater than 100 µM in each case. Besides, the TGI with MALME-3M melanoma, with SF-295 CNS, with ACHN renal and in the test with SR leukemia was greater than 100 µM throughout.
